Measured values from patent US20250332173A1, “COMPOUNDS AND METHODS FOR MODULATING NUCLEIC ACID SPLICING” (REMIX THERAPEUTICS INC., priority 2021, published 2025).
pIC50: −log10 of the molar value. Where a name gives a salt, the structure may show the parent alone. Read-outs that look alike come from different tables or passages of the source.

Columns and labels:
Target C = assay: RT-qPCR splicing assay panel, Target C canonical junction (CJ) mRNA; type: cell-based, human; details: Homo sapiens; Table 5 panel; canonical junction qPCR; compound concentration having 50% response in CJ decrease; read-out: Target C IC50 (decrease in CJ mRNA levels)
How it was run: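 Cells are plated (A673 allowed 24 h to adhere), dosed with an 11-point 3-fold series topping at 10 uM final, and incubated 24 h at 37 °C. Lysis is followed by cDNA synthesis and qPCR of the CJ transcript, normalized to a housekeeping gene.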

MYB = assay: HiBiT protein abundance assay, MYB HiBiT K562 cell line; type: cell-based, human; details: 24 hours, top dose 10 μM
How it was run: (§1)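 Endogenous targets in K562 knock-in lines carried a HiBiT tag and were treated for 24 h at 37 °C with 10-point 3-fold dilutions (top 10 μM final, DMSO ≤0.25%). Abundance was read as lytic Nano-Glo HiBiT luminescence. IC50 came from a four-parameter logistic fit of normalized response.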

HTT = assay: HiBiT protein abundance assay, HTT HiBiT K562 cell line; type: cell-based, human; details: 24 hours, top dose 10 μM
How it was run: as §1

[1] = test system: K562 (human chronic myelogenous leukemia) cells; assay: Cell Titer Glo 2.0 cell viability assay; type: cell-based; details: Homo sapiens, K562, 72 h, K562 cells, 72 hours, Cell Titer Glo 2.0; read-out: K562 GI50
[2] = HiBiT K562 cell line, read-out: Effect on protein abundance, MYB (IC50 category)
[3] = HiBiT K562 cell line, read-out: Effect on protein abundance, HTT (IC50 category)

Compound	pIC50 (Target C)	pIC50 (MYB; [2])	pIC50 (HTT; [3])	GI50 [1] [µM]	pIC50 (MYB; HiBiT lytic detection, modified K562 cells, read-out: Effect on protein abundance, MYB (IC50))	pIC50 (HTT; HiBiT lytic detection, modified K562 cells, read-out: Effect on protein abundance, HTT (IC50))
Cc1cn2nc(-c3ccc4c(=O)n(C5CCNCC5)ccc4c3)cc(C(=O)N(C)C)c2n1 [Compound 524, N, N, 2-trimethyl-6-[1-oxo-2-(4-piperidyl)-6-isoquinolyl]imidazo[1,2-b]pyridazine-8-carboxamide]	< 5.00	< 5.00	< 5.00	> 10	–	–
CC(=O)Nc1cc(-c2cc(C)c3nc(C)cn3n2)cc2ccn([C@@H]3CCNC3)c(=O)c12 [Compound 650, N-[6-(2,8-dimethylimidazo[1,2-b]pyridazin-6-yl)-1-oxo-2-[(3R)-pyrrolidin-3-yl]-8-isoquinolyl]acetamide]	< 5.00	< 5.00	< 5.00	1 to 10	–	–
Cc1cn2nc(-c3cc4ccn([C@@H]5CCNC5)c(=O)c4cc3O)cc(C)c2n1 [Compound 640, 6-(2,8-dimethylimidazo[1,2-b]pyridazin-6-yl)-7-hydroxy-2-[(3R)-pyrrolidin-3-yl]isoquinolin-1-one]	5.00 to 6.00	> 7.00	5.00 to 6.00	0.1 to 1	–	–
Cc1cn2nc(-c3cc(F)c4c(=O)n([C@@H]5CCN(C)C6(CC6)C5)ncc4c3)cc(C)c2n1 [Compound 637]	> 7.00	> 7.00	> 7.00	0.1 to 1	–	–
Cc1cn2nc(-c3ccc4c(=O)n(C5CCNCC5)ccc4c3)cc(CC(N)=O)c2n1 [Compound 528, 2-(2-methyl-6-(1-oxo-2-(piperidin-4-yl)-1,2-dihydroisoquinolin-6-yl)imidazo[1,2-b]pyridazin-8-yl) acetamide]	5.00 to 6.00	5.00 to 6.00	6.00 to 7.00	1 to 10	–	–
CCc1cn(C2CCNCC2)c(=O)c2c(F)cc(-c3cc(F)c4nc(C)cn4c3)cc12 [Compound 558, 4-ethyl-8-fluoro-6-{8-fluoro-2-methylimidazo[1,2-a]pyridin-6-yl}-2-(piperidin-4-yl)isoquinolin-1-one]	5.00 to 6.00	6.00 to 7.00	6.00 to 7.00	0.1 to 1	–	–
Cc1cn2cc(-c3cc(F)c4c(=O)n(C5CCNC6(CC6)C5)ncc4c3)cc(Cl)c2n1 (stereo not shown) [Compound 556]	5.00 to 6.00	6.00 to 7.00	> 7.00	0.1 to 1	–	–
CCOC(=O)c1cc(-c2ccc3c(=O)n(C4CCNCC4)ccc3c2)nn2cc(C)nc12 [Compound 529, ethyl 2-methyl-6-[1-oxo-2-(4-piperidyl)-6-isoquinolyl]imidazo[1,2-b]pyridazine-8-carboxylate]	5.00 to 6.00	6.00 to 7.00	6.00 to 7.00	1 to 10	–	–
CCN1CCC(n2ncc3cc(-c4cc(C)c5nc(C)cn5n4)cc(O)c3c2=O)CC1 [Compound 542]	6.00 to 7.00	> 7.00	> 7.00	0.1 to 1	–	–
Cc1cn2nc(-c3ccc4c(=O)n(C5CCNCC5)ccc4c3)cc(C(N)=O)c2n1 [Compound 523, 2-methyl-6-[1-oxo-2-(4-piperidyl)-6-isoquinolyl]imidazo[1,2-b]pyridazine-8-carboxamide]	< 5.00	5.00 to 6.00	5.00 to 6.00	1 to 10	–	–
CN1CCN(c2ccc3c(=O)n(-c4ccc5cn(C)nc5c4)cnc3c2)CC1 [Compound 178]	< 5.00	< 5.00	< 5.00	> 10	–	–
CNC(=O)Cc1cc(-c2ccc3c(=O)n(C4CCNCC4)ccc3c2)nn2cc(C)nc12 [Compound 534, N-methyl-2-[2-methyl-6-[1-oxo-2-(4-piperidyl)-6-isoquinolyl]imidazo[1,2-b]pyridazin-8-yl]acetamide]	5.00 to 6.00	6.00 to 7.00	5.00 to 6.00	1 to 10	–	–
Cc1cn2nc(-c3cc(F)c4c(=O)n(C5CCN(CCF)CC5)ncc4c3)cc(C)c2n1 [Compound 538]	6.00 to 7.00	6.00 to 7.00	> 7.00	0.1 to 1	–	–
Cc1cn2nc(-c3ccc4c(=O)n(C5CCNCC5)ncc4c3)cc(Oc3ccccc3)c2n1 [Compound 549, 6-(2-methyl-8-phenoxy-imidazo[1,2-b]pyridazin-6-yl)-2-(4-piperidyl) phthalazin-1-one]	6.00 to 7.00	> 7.00	> 7.00	0.1 to 1	–	–
CNC1CCN(c2ccc3cc(-c4cc(C)c5nc(C)cn5n4)ccn3c2=O)C1 (stereo not shown) [Compound 1158]	5.00 to 6.00	–	–	0.1 to 1	6.00 to 7.00	6.00 to 7.00
Cc1cn2nc(-c3ccc4c(=O)n(C5CCNCC5)ccc4c3)cc(Oc3ccc(F)cc3)c2n1 [Compound 546, 6-[8-(4-fluorophenoxy)-2-methyl-imidazo[1,2-b]pyridazin-6-yl]-2-(4-piperidyl) isoquinolin-1-one; hydrochloride]	> 7.00	> 7.00	> 7.00	< 0.1	–	–
